In brackets after ≈: the same amount, converted by molar mass. Where two headings read alike, the source gives them in different places. No end group written: not given here.
How the values were obtained:
[1] = system: Stapholococcus aureus ATCC 25923; test: Antimicrobial assay I, modified protocol (tryptic soy broth), MBC; settings: minimum bactericidal concentration, Table 4
[2] = system: Escherichia coli ATCC 25922; test: as above; settings: minimum bactericidal concentration, Table 4
Protocol: (§2) The preparation of all media, stock solutions, and dilutions took place in a laminar flow hood to prevent contamination. Bacterial cells were freshly grown on antibiotic medium 2 agar slants (pH 7.0 at 25° C.). Bacteria were suspended and diluted in antibiotic medium 3 to about 10^4 cfu/ml and used as the inoculum. Sample solutions (100 μl/well) were added to plates according to the plate layout. Inoculum (100 μl/well) was added to achieve a final concentration of 5×10^3 cfu/ml. Negative controls received 100 μl saline and 100 μl growth medium. Positive controls received 100 μl saline and 100 μl inoculum. Bacterial plates were incubated at 37° C. for 24 hours.
(§3) However, the data for Table 4 were obtained with a modified protocol wherein the medium was tryptic soy broth, inocolum strength was approximately 10^4 CFU per ml, and values determined were minimum bactericidal concentrations (MBC) or minimum fungicidal concentrations (MFC).
(§4) MBC or MFC values are in μg/mL. E. coli is Escherichia coli ATCC accession number 25922; P. aerug is Pseudomonas aeruginosa ATCC accession number 27853, S. aur. is Stapholococcus aureus ATCC accession number 25923; Candida is Candida albicans ATCC accession number 10231.

[3] = in vitro; assay type: cell-based, human; settings: human, human red blood cells
[4] = in vitro; settings: human, WI38 normal lung fibroblast cells
[5] = system: Candida albicans ATCC 10231; test: Antimicrobial assay I, modified protocol (tryptic soy broth), MFC; settings: minimum fungicidal concentration, Table 4
Protocol: as §2, §3, §4

[6] = system: Pseudomonas aeruginosa ATCC 27853; test: Antimicrobial assay I, modified protocol (tryptic soy broth), MBC; settings: minimum bactericidal concentration, Table 4
[7] = system: P. aeruginosa H374; assay type: cell-based, Pseudomonas aeruginosa; settings: mean of three; 16 to 20 hours at 35° C.
[8] = system: S. typhimurium 14028S; assay type: cell-based, Salmonella typhimurium; settings: mean of three; 16 to 20 hours at 35° C.; in µg/mL
[9] = system: SW480; test: Anti-cancer assay, MTT, LD50; assay type: cell-based; settings: SW480 colon adenocarcinoma line, 24 hours with peptide
From the text: (§1) Numbers are LD50 values (μg/mL).

[10] = system: MCF7; test: Anti-cancer assay, MTT, LD50; assay type: cell-based; settings: MCF7 breast adenocarcinoma line, MTT, 24 hours with peptide
From the text: as §1

[11] = system: BMKC; test: Anti-cancer assay, MTT, LD50; assay type: cell-based; settings: BMKC cloned melanoma line, 24 hours with peptide
From the text: as §1

[12] = system: E. coli UB1005; assay type: cell-based, Escherichia coli; settings: mean of three; 16 to 20 hours at 35° C.; in µg/mL
[13] = system: WI38; settings: Table 27
[14] = system: Pseudomonas aeruginosa ATCC 9027; test: Antimicrobial assay I, MIC by OD measurement; assay type: cell-based
From the text: The data for the following antimicrobial assay of the peptides have been obtained by making OD measurements in in vitro cell culture experiments with and without added peptide. The protocol used is as follows.
Cell lines included Staphylococcus aureus ATCC 6538 or 25923, Pseudomonas aeruginosa ATCC 9027 or 27853. Medium used were Antibiotic Medium 3 (Difco), Antibiotic Medium 2 (Difco), and 0.85% saline. Controls used were physiological saline, and gentamycin at 50, 25, 10, 5, 1, and 0.1 ppm.
Absorbance was read at 620 nm after shaking to resuspend cells.
Staph6538 is Staphylococcus aureus ATCC accession number 6538; paerug9027 is Pseudomonas aeruginosa ATCC accession number 9027, yeast is Saccharomyces cerevisiae.

[15] = pH 7, Table 26, valine substitution, read-out: Hemolysis RBC LD50
[16] = WI-38 LD50, Table 26, valine substitution

| Compound | MBC S. aur A.25923 [1] | MBC E. coli A.25922 [2] | MFC Candida A.10231 [5] | MBC P. aerug A.27853 [6] | also measured |
| --- | --- | --- | --- | --- | --- |
| VALALKALKKALKKLKKALKKAL-NH2 [compound 30] | 40 µg/mL | 10 µg/mL | >50 µg/mL | 15 µg/mL | HC50 at 1 h [3, 15]: 150 µg/mL; CC50 at 24 h [4, 16]: 93 µg/mL |
| FAKKLAKKLKKLAKLALAL-OH [P29] |  |  |  |  | P. aeruginosa H374 MIC [7]: 16 µg/mL; S. typhimurium 14028S MIC [8]: 8; HC50 at 1 h ([3]; pH 7, hemolytic assay, concentration at 50% hemolysis, 1 hour at 37° C., read-out: LD50): 250 µg/mL; LD50 SW480 [9]: 210 µg/mL; LD50 MCF7 [10]: 140 µg/mL; LD50 BMKC [11]: 300 µg/mL; CC50 at 24 h ([4]; LD50 WI38, WI38 normal lung fibroblast line, MTT, 24 hours with peptide): 520 µg/mL; E. coli UB1005 MIC [12]: 8 |
| CC(C)C[C@H](NC(=O)[C@H](CCCCN)NC(=O)[C@H](C)NC(=O)[C@H](CC(C)C)NC(=O)[C@H](CC(C)C)NC(=O)[C@H](CCCCN)NC(=O)[C@H](C)NC(=O)[C@@H](N)Cc1ccccc1)C(=O)N[C@@H](C)C(=O)N[C@@H](CCCCN)C(=O)N[C@@H](CCCCN)C(N)=O [compound 151] | >250 µg/mL | >250 µg/mL | 100 µg/mL (≈ 81.3 µM) | >250 µg/mL |  |
| FAKLWAKLAKKL-NH2 [compound 136] | INACT | INACT | INACT | INACT |  |
| CC(C)C[C@H](NC(=O)[C@H](C)NC(=O)[C@H](CC(C)C)NC(=O)[C@H](CCCCN)NC(=O)[C@H](C)NC(=O)[C@H](CC(C)C)NC(=O)[C@H](CCCCN)NC(=O)[C@H](CCCCN)NC(=O)[C@H](C)NC(=O)[C@H](CC(C)C)NC(=O)[C@H](CCCCN)NC(=O)[C@H](C)NC(=O)[C@H](CC(C)C)NC(=O)[C@H](CCCCN)NC(=O)[C@H](CCCCN)NC(=O)[C@H](C)NC(=O)[C@@H](N)Cc1ccccc1)C(N)=O [compound 35] | 10 µg/mL (≈ 5.39 µM) | 8 µg/mL (≈ 4.31 µM) | >40 µg/mL | 8 µg/mL (≈ 4.31 µM) | WI38 LD50 [13]: 25 µg/mL; HC50 at 1 h [3, 15]: 150 µg/mL; HC50 at 1 h ([3]; pH 7, Table 27, read-out: Hemolysis (LD50)): 100 µg/mL; CC50 at 24 h [4, 16]: 25 µg/mL (≈ 13.5 µM); P. aerug (MIC) [14]: 200 µg/mL |
| CC(C)C[C@H](NC(=O)[C@H](C)NC(=O)[C@H](CCCCN)NC(=O)[C@H](C)NC(=O)[C@H](CC(C)C)NC(=O)[C@H](CCCCN)NC(=O)[C@H](C)NC(=O)[C@H](CC(C)C)NC(=O)[C@H](CCCCN)NC(=O)[C@H](C)NC(=O)[C@H](CC(C)C)NC(=O)[C@H](CCCCN)NC(=O)[C@H](CCCCN)NC(=O)[C@H](C)NC(=O)[C@H](CC(C)C)NC(=O)[C@@H](N)CCCCN)C(=O)O [compound 160] | >250 µg/mL | >250 µg/mL | >250 µg/mL | >250 µg/mL |  |
| FALALKALKKLLKKLKKLAKKAL-NH2 [compound 24] | >40 µg/mL | >80 µg/mL | >50 µg/mL | 30 µg/mL | HC50 at 1 h [3, 15]: 10 µg/mL; CC50 at 24 h [4, 16]: 55 µg/mL |
| FGKGIGKVGKKLL-NH2 [compound 132] | INACT | INACT | INACT | INACT |  |
| CC(C)C[C@H](NC(=O)[C@H](CC(C)C)NC(=O)[C@H](C)NC(=O)[C@H](CCCCN)NC(=O)[C@H](C)NC(=O)[C@H](CC(C)C)NC(=O)[C@H](CCCCN)NC(=O)[C@H](CCCCN)NC(=O)[C@H](C)NC(=O)[C@@H](N)Cc1ccccc1)C(N)=O [compound 58] | >50 µg/mL | >50 µg/mL | >50 µg/mL | >50 µg/mL |  |
| CC(C)C[C@H](NC(=O)[C@H](C)NC(=O)[C@H](CCCCN)NC(=O)[C@H](CCCCN)NC(=O)[C@H](CC(C)C)NC(=O)[C@H](C)NC(=O)[C@H](CCCCN)NC(=O)[C@H](C)NC(=O)[C@H](CC(C)C)NC(=O)[C@H](C)NC(=O)[C@@H](N)Cc1ccccc1)C(N)=O [compound 166] | >250 µg/mL | >250 µg/mL | >250 µg/mL | >250 µg/mL |  |
| KWKLAKKALALL-NH2 [compound 142] | INACT | INACT | INACT | INACT |  |
| CC(C)C[C@H](NC(=O)[C@H](CCCCN)NC(=O)[C@H](Cc1c[nH]c2ccccc12)NC(=O)[C@H](CCCCN)NC(=O)[C@H](CCCCN)NC(=O)[C@H](C)NC(=O)[C@H](CC(C)C)NC(=O)[C@H](CCCCN)NC(=O)[C@H](CCCCN)NC(=O)[C@H](C)NC(=O)[C@H](CC(C)C)NC(=O)[C@H](CCCCN)NC(=O)[C@H](CCCCN)NC(=O)[C@H](CC(C)C)NC(=O)[C@H](CCCCN)NC(=O)[C@H](CCCCN)NC(=O)[C@H](C)NC(=O)[C@H](CC(C)C)NC(=O)[C@H](CCCCN)NC(=O)[C@H](CCCCN)NC(=O)[C@H](C)NC(=O)[C@@H](N)Cc1ccccc1)C(=O)O [compound 72] | >50 µg/mL | >50 µg/mL | >50 µg/mL | 40 µg/mL (≈ 15.3 µM) |  |
| FALALKALKKLAKKLKKLAKKAL-NH2 [compound 25] | 40 µg/mL | 40 µg/mL | >50 µg/mL | 30 µg/mL | HC50 at 1 h [3, 15]: 16 µg/mL; CC50 at 24 h [4, 16]: 24 µg/mL |
| CC(C)C[C@H](NC(=O)[C@H](CC(C)C)NC(=O)[C@H](CCCCN)NC(=O)[C@H](CCCCN)NC(=O)[C@H](C)NC(=O)[C@H](C)NC(=O)[C@H](CC(C)C)NC(=O)[C@H](CCCCN)NC(=O)[C@H](CC(C)C)NC(=O)[C@H](CC(C)C)NC(=O)[C@H](CCCCN)NC(=O)[C@H](C)NC(=O)[C@@H](N)Cc1ccccc1)C(N)=O [compound 56] | 55 µg/mL (≈ 37.8 µM) | 50 µg/mL (≈ 34.3 µM) | 30 µg/mL (≈ 20.6 µM) | 10 µg/mL (≈ 6.87 µM) |  |
| FAKIIAKIAKKI-NH2 [compound 143] | INACT | INACT | INACT | INACT |  |
| CC(C)C[C@H](NC(=O)[C@H](CCCCN)NC(=O)[C@H](C)NC(=O)[C@H](CCCCN)NC(=O)[C@H](C)NC(=O)[C@H](CC(C)C)NC(=O)[C@H](CCCCN)NC(=O)[C@H](C)NC(=O)[C@H](CC(C)C)NC(=O)[C@H](CC(C)C)NC(=O)[C@H](CCCCN)NC(=O)[C@H](C)NC(=O)[C@@H](N)Cc1ccccc1)C(N)=O [compound 65] | >55 µg/mL | >55 µg/mL | >50 µg/mL | >50 µg/mL |  |
| FAKLA-NH2 [compound 128] | INACT | INACT | INACT | INACT |  |
| FAFGKGIGKIGKKGL-NH2 [compound 138] | INACT | INACT | INACT | INACT |  |
| FAKGVGKVGKKAL-NH2 [compound 137] | INACT | INACT | INACT | INACT |  |
| FAFAKIIAKIAKKII-NH2 [compound 140] | INACT | INACT | INACT | INACT |  |
| CC(C)C[C@H](NC(=O)[C@H](C)NC(=O)[C@H](CCCCN)NC(=O)[C@H](C)NC(=O)[C@H](CC(C)C)NC(=O)[C@H](CCCCN)NC(=O)[C@H](C)NC(=O)[C@H](CC(C)C)NC(=O)[C@H](CCCCN)NC(=O)[C@H](C)NC(=O)[C@H](CC(C)C)NC(=O)[C@H](CCCCN)NC(=O)[C@H](CCCCN)NC(=O)[C@H](C)NC(=O)[C@H](CC(C)C)NC(=O)[C@@H](N)CCCCN)C(N)=O [compound 159] | >250 µg/mL | 10 µg/mL (≈ 5.86 µM) | 50 µg/mL (≈ 29.3 µM) | 10 µg/mL (≈ 5.86 µM) |  |

Source: US20050209157A1, “Short bioactive peptides and methods for their use” (priority 2001, published 2005)
